Source: patent US5401490A, “Markers of tissue hypoxia” (priority 1989, dated 1995)
Read-outs that look alike come from different tables or passages of the source.

Legend:
[1] = system: EMT-6 cells; assay: Toxicity to hypoxic EMT-6 cells (surviving fraction); format: cell-based, mouse
Procedure: This represents a cytosidal toxicity about 10× that of MISO under the same conditions.
EXAMPLE 9 TOXICITY STUDIES
EMT-6 mouse fibrosarcoma cells in stirred cultures, as described previously (5), were exposed to various concentrations of the test drugs under hypoxic conditions. Cells were removed at various intervals and the colony-forming ability was assessed by plating the cells in drug-free complete MEM with 10% fetal calf serum. The data were used to construct plots of surviving fraction of EMT-6 cells against time of incubation with test drug at various drug concentrations (FIG. 2) as in Jette (13).

[2] = Long term storage in solution; format: physicochemical
From the text: Both IAZA and IAZG are synthesised, in high yield, from commercial precursors (FIG. 1) and undergo high-yield isotope exchange reactions with radioiodine to produce the required radiolabelled test compounds. […] Therefore, the compounds were stored as a dry residue in multidose vials under refrigeration and were reconstituted with the appropriate solvent just prior to use. IAZP is similarly synthesised. It will be known to those skilled in the art that other radio halogens may be similarly employed in the exchange reaction.

[3] = system: EMT-6 cells; assay: Hypoxic cell radiosensitizing ability (post-irradiation survival); format: cell-based, mouse
Procedure: Cell cultures were examined under oxic (air) and hypoxic incubation, with various concentrations of test drug, and at several doses of radiation.

[4] = Tissue distribution of radioactivity after intravenous injection; format: in vivo, BALB/C mice; conditions: mouse, iv, i.v.; for tissue uptake at 0.5 h: 0.50 h
From the text: Tables 1 and 2 show the percent of injected IAZG and IAZA respectively per gram of wet tissue for selected tissues excised from BALB/C mice bearing EMT-6 tumors. This tumor model is known to have a high hypoxic fraction (0.33) (16). […] Hepatobiliary excretion may play a role in blood clearance as evidenced by elevated liver radioactivity and the appearance of activity in the intestine. Some oxidative or reductive metabolites of the 2-nitroimidazoles may also become bound to liver tissue, as was postulated in an in vivo study with ^14 C-MISO (6). This supposition is supported by the persistence of liver radioactivity at longer time periods. […] At 8 and 24 hours thyroid levels of IAZG are 7.2 and 30.9% of the total body activity and for IAZA they are 7.9 and 33.8% of total body activity. EXAMPLE 11 TISSUE DISTRIBUTION AND EXCRETION Tumor propagation of EMT-6 tumors in BALB/C mice was accomplished by subcutaneous injection of a cell suspension (10^5 cells in 0.1 mL) as described previously (10). Tumors reached about 10 mm in diameter (≈0.5 g) at 12 to 14 days, at which time each animal was given a bolus intravenous injection of ^125 I-labelled test drug via the tail vein (40 to 60 kBq in 0.1 mL). At set time periods the animals were asphyxiated with CO2 and exsanguinated via cardiac puncture. Tissues were dissected, weighed wet into vials and counted for ^125 I-activity. Whole-body activity was determined by summation of total activity in tissues and in residual carcass, and blood activity was determined from the blood aliquot, assuming blood to be 6.5% of the total body weight. EXAMPLE 12 Male BALB/c mice (20-25 g) were inoculated subcutaneously in the left flank with a suspension of murine EMT-6 cells (10^5 cells in 0.1 mL) (14). After 12 to 14 days, when the tumors reached the desired size (8-10 mm diameter), each mouse received a single intravenous (iv) injection of ^125 I-IAZA (59 kBq in 0.1 mL). […] Heart, lung, liver, spleen, muscle, bone, thyroid, kidney, stomach, small intestine, tail, tumor and skin were removed upon necropsy, weighed and analyzed for ^125 I using a Beckman Model 8000 gamma scintillation counter. The remaining carcass mass was also weighed and radioassayed.

[5] = blood, read-out: Percent of Injected Dose per Gram, Blood
[6] = bone, read-out: Percent of Injected Dose per Gram, Bone
[7] = carcass, read-out: Percent of Injected Dose per Gram, Carcass
[8] = heart, read-out: Percent of Injected Dose per Gram, Heart
[9] = intestine, read-out: Percent of Injected Dose per Gram, Intestine
[10] = kidney, read-out: Percent of Injected Dose per Gram, Kidney
[11] = liver, read-out: Percent of Injected Dose per Gram, Liver
[12] = lung, read-out: Percent of Injected Dose per Gram, Lung
[13] = muscle, read-out: Percent of Injected Dose per Gram, Muscle
[14] = spleen, read-out: Percent of Injected Dose per Gram, Spleen
[15] = stomach, read-out: Percent of Injected Dose per Gram, Stomach
[16] = tumor, read-out: Percent of Injected Dose per Gram, Tumor

O=[N+]([O-])c1nccn1[C@@H]1O[C@H](CI)[C@@H](O)[C@@H]1O [IAZA, 1-(5-iodo-5-deoxy-β-D-arabino-furanosyl)-2-nitroimidazole]
time required to reduce the cell population by 90% ([1]; 1.0 mM, hypoxic, 37° C.): 1.65 h
selective toxicity to hypoxic EMT-6 tumor cells ([1]; in words): selective toxicity to hypoxic EMT-6 tumor cells
stability on long term storage in solution [2]: some decomposition of the pure compounds
sensitizer enhancement ratio (SER) ([3]; 50 μM, 90% cell kill, hypoxic): ~1.4
sensitisation to lethal effects of ionising radiation ([3]; in words): sensitise these cells to the lethal effects of ionising radiation
tissue uptake at 0.25 h [4, 5]: 2.63 ± 0.28 %ID/g
tissue uptake at 0.5 h [4, 5]: 2.17 ± 0.85 %ID/g
tissue uptake at 1 h [4, 5]: 1.84 ± 0.72 %ID/g
tissue uptake at 2 h [4, 5]: 0.91 ± 1.56 %ID/g
tissue uptake at 4 h [4, 5]: 0.45 ± 1.24 %ID/g
tissue uptake at 8 h [4, 5]: 0.14 ± 0.07 %ID/g
tissue uptake at 24 h [4, 5]: 0.037 ± 0.047 %ID/g
tissue uptake at 0.25 h [4, 6]: 1.31 ± 0.18 %ID/g
tissue uptake at 0.5 h [4, 6]: 1.37 ± 0.57 %ID/g
tissue uptake at 1 h [4, 6]: 1.15 ± 0.52 %ID/g
tissue uptake at 2 h [4, 6]: 0.58 ± 0.26 %ID/g
tissue uptake at 4 h [4, 6]: 0.27 ± 0.09 %ID/g
tissue uptake at 8 h [4, 6]: 0.08 ± 0.03 %ID/g
tissue uptake at 24 h [4, 6]: 0.022 ± 0.03 %ID/g
tissue uptake at 0.25 h [4, 7]: 2.68 ± 0.44 %ID/g
tissue uptake at 0.5 h [4, 7]: 2.55 ± 0.37 %ID/g
tissue uptake at 1 h [4, 7]: 2.23 ± 0.91 %ID/g
tissue uptake at 2 h [4, 7]: 1.46 ± 0.29 %ID/g
tissue uptake at 4 h [4, 7]: 0.89 ± 0.52 %ID/g
tissue uptake at 8 h [4, 7]: 0.28 ± 0.12 %ID/g
tissue uptake at 24 h [4, 7]: 0.038 ± 0.016 %ID/g
tissue uptake at 0.25 h [4, 8]: 4.69 ± 0.91 %ID/g
tissue uptake at 0.5 h [4, 8]: 3.56 ± 0.66 %ID/g
tissue uptake at 1 h [4, 8]: 2.78 ± 1.3 %ID/g
tissue uptake at 2 h [4, 8]: 1.03 ± 0.43 %ID/g
tissue uptake at 4 h [4, 8]: 0.32 ± 0.24 %ID/g
tissue uptake at 8 h [4, 8]: 0.22 ± 0.05 %ID/g
tissue uptake at 24 h [4, 8]: 0.042 ± 0.017 %ID/g
tissue uptake at 0.25 h [4, 9]: 5.42 ± 1.03 %ID/g
tissue uptake at 0.5 h [4, 9]: 4.44 ± 0.62 %ID/g
tissue uptake at 1 h [4, 9]: 4.63 ± 1.92 %ID/g
tissue uptake at 2 h [4, 9]: 1.73 ± 0.55 %ID/g
tissue uptake at 4 h [4, 9]: 0.81 ± 0.46 %ID/g
tissue uptake at 8 h [4, 9]: 0.77 ± 0.36 %ID/g
tissue uptake at 24 h [4, 9]: 0.041 ± 0.016 %ID/g
tissue uptake at 0.25 h [4, 10]: 6.56 ± 0.63 %ID/g
tissue uptake at 0.5 h [4, 10]: 5.67 ± 0.95 %ID/g
tissue uptake at 1 h [4, 10]: 4.38 ± 1.25 %ID/g
tissue uptake at 2 h [4, 10]: 1.8 ± 0.61 %ID/g
tissue uptake at 4 h [4, 10]: 0.66 ± 0.39 %ID/g
tissue uptake at 8 h [4, 10]: 0.34 ± 0.06 %ID/g
tissue uptake at 24 h [4, 10]: 0.52 ± 0.004 %ID/g
tissue uptake at 0.25 h [4, 11]: 8.65 ± 1.02 %ID/g
tissue uptake at 0.5 h [4, 11]: 7.14 ± 1.13 %ID/g
tissue uptake at 1 h [4, 11]: 5.63 ± 2.27 %ID/g
tissue uptake at 2 h [4, 11]: 2.18 ± 0.8 %ID/g
tissue uptake at 4 h [4, 11]: 0.95 ± 0.58 %ID/g
tissue uptake at 8 h [4, 11]: 0.47 ± 0.1 %ID/g
tissue uptake at 24 h [4, 11]: 0.098 ± 0.008 %ID/g
tissue uptake at 0.25 h [4, 12]: 4.61 ± 0.82 %ID/g
tissue uptake at 0.5 h [4, 12]: 3.77 ± 0.67 %ID/g
tissue uptake at 1 h [4, 12]: 2.99 ± 1.41 %ID/g
tissue uptake at 2 h [4, 12]: 1.15 ± 0.38 %ID/g
tissue uptake at 4 h [4, 12]: 0.45 ± 0.3 %ID/g
tissue uptake at 8 h [4, 12]: 0.33 ± 0.07 %ID/g
tissue uptake at 24 h [4, 12]: 0.037 ± 0.008 %ID/g
tissue uptake at 0.25 h [4, 13]: 3.09 ± 0.67 %ID/g
tissue uptake at 0.5 h [4, 13]: 2.77 ± 0.54 %ID/g
tissue uptake at 1 h [4, 13]: 2.19 ± 1.03 %ID/g
tissue uptake at 2 h [4, 13]: 0.69 ± 0.29 %ID/g
tissue uptake at 4 h [4, 13]: 0.24 ± 0.12 %ID/g
tissue uptake at 8 h [4, 13]: 0.36 ± 0.31 %ID/g
tissue uptake at 24 h [4, 13]: 0.02 ± 0.004 %ID/g
tissue uptake at 0.25 h [4, 14]: 3.57 ± 0.67 %ID/g
tissue uptake at 0.5 h [4, 14]: 3 ± 0.62 %ID/g
tissue uptake at 1 h [4, 14]: 2.48 ± 1.25 %ID/g
tissue uptake at 2 h [4, 14]: 0.93 ± 0.37 %ID/g
tissue uptake at 4 h [4, 14]: 0.35 ± 0.2 %ID/g
tissue uptake at 8 h [4, 14]: 0.18 ± 0.04 %ID/g
tissue uptake at 24 h [4, 14]: 0.036 ± 0.034 %ID/g
tissue uptake at 0.25 h [4, 15]: 4.36 ± 0.7 %ID/g
tissue uptake at 0.5 h [4, 15]: 4.75 ± 1.05 %ID/g
tissue uptake at 1 h [4, 15]: 3.95 ± 0.93 %ID/g
tissue uptake at 2 h [4, 15]: 3.3 ± 0.93 %ID/g
tissue uptake at 4 h [4, 15]: 1.81 ± 1.6 %ID/g
tissue uptake at 8 h [4, 15]: 0.87 ± 0.54 %ID/g
tissue uptake at 24 h [4, 15]: 0.067 ± 0.014 %ID/g
tissue uptake at 0.25 h [4, 16]: 2.55 ± 0.86 %ID/g
tissue uptake at 0.5 h [4, 16]: 3.48 ± 0.46 %ID/g
tissue uptake at 1 h [4, 16]: 2.7 ± 0.39 %ID/g
tissue uptake at 2 h [4, 16]: 2.55 ± 1.65 %ID/g
tissue uptake at 4 h [4, 16]: 2.08 ± 0.27 %ID/g
tissue uptake at 8 h [4, 16]: 1.22 ± 0.24 %ID/g
tissue uptake at 24 h [4, 16]: 0.206 ± 0.23 %ID/g
